US10668067B2, “Pyridine sulfonamides” (AMGEN INC., priority 2016, dated 2020)

Molecular target: human Nav1.7 (Homo sapiens (Human), UniProt Q15858)
Test: Nav 1.7 In Vitro PX Assay (PatchXpress whole cell voltage clamp)
Type: cell-based
Conditions: in-vitro Nav 1.7 PX data
Procedure: HEK 293 cells stably transfected with human Nav1.7 were recorded in whole cell voltage clamp mode with the PatchXpress automated electrophysiology system (Molecular Devices, LLC, Sunnyvale, Calif.). Compound effects were measured on a partially inactivated state of the sodium channel. Cells were clamped to a holding potential yielding 20 to 50% inactivation. To elicit sodium current, channels were activated by pulsing to −10 mV for 20 msec. This voltage protocol was repeated at a rate of 0.1 Hz throughout the experiment. A single concentration of test compound was applied to cells for a duration of 3 minutes. Peak sodium current was measured at the end of the compound addition period to determine percent inhibition. Three to five cells were tested per concentration, and IC50 curves were fitted to percent inhibition as a function of concentration.

Chain of human Nav1.7 (Q15858 whole entry): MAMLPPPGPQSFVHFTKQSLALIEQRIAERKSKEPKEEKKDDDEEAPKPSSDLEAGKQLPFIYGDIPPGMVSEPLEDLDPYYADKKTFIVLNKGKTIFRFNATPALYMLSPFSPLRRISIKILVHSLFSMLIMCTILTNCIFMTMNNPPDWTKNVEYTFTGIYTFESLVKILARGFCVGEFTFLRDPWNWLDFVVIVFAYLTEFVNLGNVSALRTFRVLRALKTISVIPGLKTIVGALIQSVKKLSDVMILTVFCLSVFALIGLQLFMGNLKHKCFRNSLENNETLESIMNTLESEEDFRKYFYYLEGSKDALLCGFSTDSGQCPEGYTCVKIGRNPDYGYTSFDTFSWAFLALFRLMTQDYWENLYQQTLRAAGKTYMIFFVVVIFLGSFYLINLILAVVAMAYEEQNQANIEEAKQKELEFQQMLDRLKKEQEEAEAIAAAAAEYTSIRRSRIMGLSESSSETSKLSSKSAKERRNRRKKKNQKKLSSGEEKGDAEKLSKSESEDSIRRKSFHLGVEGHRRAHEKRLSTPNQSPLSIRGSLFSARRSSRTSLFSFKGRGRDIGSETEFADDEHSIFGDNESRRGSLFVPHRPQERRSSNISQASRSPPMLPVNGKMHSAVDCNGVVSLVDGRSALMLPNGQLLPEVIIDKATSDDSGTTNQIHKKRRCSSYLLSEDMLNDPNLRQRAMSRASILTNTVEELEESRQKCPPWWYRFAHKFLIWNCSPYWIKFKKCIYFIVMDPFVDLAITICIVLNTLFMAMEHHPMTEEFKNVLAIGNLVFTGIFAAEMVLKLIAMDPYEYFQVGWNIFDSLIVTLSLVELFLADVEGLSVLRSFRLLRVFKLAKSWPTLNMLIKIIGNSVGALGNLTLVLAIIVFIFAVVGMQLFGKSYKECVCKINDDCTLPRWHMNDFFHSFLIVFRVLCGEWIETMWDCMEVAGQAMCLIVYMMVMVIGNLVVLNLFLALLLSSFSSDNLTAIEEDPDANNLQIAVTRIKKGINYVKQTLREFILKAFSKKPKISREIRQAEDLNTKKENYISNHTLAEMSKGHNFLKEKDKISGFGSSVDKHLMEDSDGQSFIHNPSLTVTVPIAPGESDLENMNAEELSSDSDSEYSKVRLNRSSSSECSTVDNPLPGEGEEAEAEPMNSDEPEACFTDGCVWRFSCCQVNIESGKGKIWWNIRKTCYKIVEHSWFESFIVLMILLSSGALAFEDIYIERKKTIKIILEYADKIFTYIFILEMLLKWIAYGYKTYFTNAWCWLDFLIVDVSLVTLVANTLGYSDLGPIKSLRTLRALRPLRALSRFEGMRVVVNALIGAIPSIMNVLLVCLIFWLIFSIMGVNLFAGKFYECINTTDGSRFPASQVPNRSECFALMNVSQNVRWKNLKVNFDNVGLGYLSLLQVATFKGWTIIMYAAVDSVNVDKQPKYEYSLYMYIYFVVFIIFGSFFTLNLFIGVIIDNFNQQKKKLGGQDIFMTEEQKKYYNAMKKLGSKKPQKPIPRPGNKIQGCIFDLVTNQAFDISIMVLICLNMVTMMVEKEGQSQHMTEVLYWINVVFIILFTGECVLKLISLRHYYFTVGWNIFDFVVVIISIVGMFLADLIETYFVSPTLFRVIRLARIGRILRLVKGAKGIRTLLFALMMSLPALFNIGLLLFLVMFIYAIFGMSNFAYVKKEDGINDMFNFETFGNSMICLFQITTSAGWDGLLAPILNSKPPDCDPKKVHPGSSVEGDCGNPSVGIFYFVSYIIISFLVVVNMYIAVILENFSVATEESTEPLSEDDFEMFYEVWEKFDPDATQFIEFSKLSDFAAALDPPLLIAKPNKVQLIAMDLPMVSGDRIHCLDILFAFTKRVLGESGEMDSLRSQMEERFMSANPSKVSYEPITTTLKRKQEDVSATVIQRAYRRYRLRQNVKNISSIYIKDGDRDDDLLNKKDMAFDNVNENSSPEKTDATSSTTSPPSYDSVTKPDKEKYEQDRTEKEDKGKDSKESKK

IC50 [nM]	SMILES
14	CNC(=O)N(c1ccc(S(=O)(=O)Nc2ccon2)cn1)c1cc(Cl)c(-c2cc(Cl)cc(OC)c2)cc1OC [Example 1-32, 6-((2,3′-dichloro-5,5′-dimethoxy-4-biphenylyl)(methylcarbamoyl)amino)-N-3-isoxazolyl-3-pyridinesulfonamide]
43	CNC(=O)N(c1ccc(S(=O)(=O)Nc2ccon2)cn1)c1cc(Cl)c(-c2ccc(Cl)c(OC)c2)cc1OC [Example 1-33, 6-((2,4′-dichloro-3′,5-dimethoxy-4-biphenylyl)(methylcarbamoyl)amino)-N-3-isoxazolyl-3-pyridinesulfonamide]
27	CNC(=O)N(c1ccc(S(=O)(=O)Nc2ccon2)cn1)c1cc(Cl)c(-c2cc(Cl)ccc2C)cc1OC [Example 1-34, 6-((2,5′-dichloro-5-methoxy-2′-methyl-4-biphenylyl)(methylcarbamoyl)amino)-N-3-isoxazolyl-3-pyridinesulfonamide]
185	CNC(=O)N(c1ccc(S(=O)(=O)Nc2ccon2)cn1)c1cc(F)c(-c2ccc(Cl)c(OC)c2)cc1OC [Example 1-35, 6-((4′-chloro-2-fluoro-3′,5-dimethoxy-4-biphenylyl)(methylcarbamoyl)amino)-N-3-isoxazolyl-3-pyridinesulfonamide]
11	CNC(=O)N(c1ccc(S(=O)(=O)Nc2ccon2)cn1)c1cc(Cl)c(-c2cc(OC)cc(C(F)(F)F)c2)cc1OC [Example 1-36, 6-((2-chloro-3′,5-dimethoxy-5′-(trifluoromethyl)-4-biphenylyl)(methylcarbamoyl)amino)-N-3-isoxazolyl-3-pyridinesulfonamide]
11	CNC(=O)N(c1ccc(S(=O)(=O)Nc2ccon2)cn1)c1cc(Cl)c(-c2cccc(OCC(F)(F)F)c2)cc1OC [Example 1-37, 6-((2-chloro-5-methoxy-3′-(2,2,2-trifluoroethoxy)-4-biphenylyl)(methylcarbamoyl)amino)-N-3-isoxazolyl-3-pyridinesulfonamide]
21	CNC(=O)N(c1ccc(S(=O)(=O)Nc2ccon2)cn1)c1cc(Cl)c(-c2cccc(C3CC3)c2)cc1OC [Example 1-38, 6-((2-chloro-3′-cyclopropyl-5-methoxy-4-biphenylyl)(methylcarbamoyl)amino)-N-3-isoxazolyl-3-pyridinesulfonamide]
11	CNC(=O)N(c1ccc(S(=O)(=O)Nc2ccon2)cn1)c1cc(Cl)c(-c2cccc(OC(F)(F)F)c2)cc1OC [Example 1-39, 6-((2-chloro-5-methoxy-3′-(trifluoromethoxy)-4-biphenylyl)(methylcarbamoyl)amino)-N-3-isoxazolyl-3-pyridinesulfonamide]
32	CNC(=O)N(c1ccc(S(=O)(=O)Nc2ccon2)cn1)c1cc(Cl)c(-c2cc(C(F)(F)F)cnc2OC)cc1OC [Example 1-40, 6-((5-chloro-2-methoxy-4-(2-methoxy-5-(trifluoromethyl)-3-pyridinyl)phenyl)(methylcarbamoyl)amino)-N-3-isoxazolyl-3-pyridinesulfonamide]
166	CNC(=O)N(c1ccc(S(=O)(=O)Nc2ccon2)cn1)c1cc(Cl)c(-c2cc(Cl)cnc2OC)cc1OC [Example 1-41, 6-((5-chloro-4-(5-chloro-2-methoxy-3-pyridinyl)-2-methoxyphenyl)(methylcarbamoyl)amino)-N-3-isoxazolyl-3-pyridinesulfonamide]
29	CNC(=O)N(c1ccc(S(=O)(=O)Nc2ccon2)cn1)c1cc(Cl)c(-c2cc(OC)nc(C(F)(F)F)c2)cc1OC [Example 1-42, 6-((5-chloro-2-methoxy-4-(2-methoxy-6-(trifluoromethyl)-4-pyridinyl)phenyl)(methylcarbamoyl)amino)-N-3-isoxazolyl-3-pyridinesulfonamide]
131	CNC(=O)N(c1ccc(S(=O)(=O)Nc2ccon2)cn1)c1cc(Cl)c(-c2ccnc(C(F)(F)F)c2)cc1OC [Example 1-43, 6-((5-chloro-2-methoxy-4-(2-(trifluoromethyl)-4-pyridinyl)phenyl)(methylcarbamoyl)amino)-N-3-isoxazolyl-3-pyridinesulfonamide]
125	CNC(=O)N(c1ccc(S(=O)(=O)Nc2ccon2)cn1)c1cc(Cl)c(-c2ccc(F)cc2)cc1OC [Example 1-44, 6-((2-chloro-4′-fluoro-5-methoxy-4-biphenylyl)(methylcarbamoyl)amino)-N-3-isoxazolyl-3-pyridinesulfonamide]
65	CNC(=O)N(c1ccc(S(=O)(=O)Nc2ccon2)cn1)c1cc(Cl)c(-c2ccc(C(F)(F)F)cc2)cc1OC [Example 1-45, 6-((2-chloro-5-methoxy-4′-(trifluoromethyl)-4-biphenylyl)(methylcarbamoyl)amino)-N-3-isoxazolyl-3-pyridinesulfonamide]
46	CNC(=O)N(c1ccc(S(=O)(=O)Nc2ccon2)cn1)c1cc(Cl)c(-c2ccc(C(F)(F)F)c(OC)c2)cc1OC [Example 1-46, 6-((2-chloro-3′,5-dimethoxy-4′-(trifluoromethyl)-4-biphenylyl)(methylcarbamoyl)amino)-N-3-isoxazolyl-3-pyridinesulfonamide]
72	CNC(=O)N(c1ccc(S(=O)(=O)Nc2ccon2)cn1)c1cc(Cl)c(-c2cccc(OC(F)F)c2)cc1OC [Example 1-47, 6-((2-chloro-3′-(difluoromethoxy)-5-methoxy-4-biphenylyl)(methylcarbamoyl)amino)-N-3-isoxazolyl-3-pyridinesulfonamide]
71	CNC(=O)N(c1ccc(S(=O)(=O)Nc2ccon2)cn1)c1cc(Cl)c(-c2cccc(OC(C)C)c2)cc1OC [Example 1-48, 6-((2-chloro-5-methoxy-3′-(1-methylethoxy)-4-biphenylyl)(methylcarbamoyl)amino)-N-3-isoxazolyl-3-pyridinesulfonamide]
28	CNC(=O)N(c1ccc(S(=O)(=O)Nc2ccon2)cn1)c1cc(Cl)c(-c2cc(F)cc(C(F)(F)F)c2)cc1OC [Example 1-49, 6-((2-chloro-3′-fluoro-5-methoxy-5′-(trifluoromethyl)-4-biphenylyl)(methylcarbamoyl)amino)-N-3-isoxazolyl-3-pyridinesulfonamide]
49	CNC(=O)N(c1ccc(S(=O)(=O)Nc2ccon2)cn1)c1cc(Cl)c(-c2cc(C)c(F)c(OC)c2)cc1OC [Example 1-50, 6-((2-chloro-4′-fluoro-3′,5-dimethoxy-5′-methyl-4-biphenylyl)(methylcarbamoyl)amino)-N-3-isoxazolyl-3-pyridinesulfonamide]
9	CNC(=O)N(c1ccc(S(=O)(=O)Nc2ccon2)cn1)c1cc(Cl)c(-c2cc(OC)cc(OC(F)(F)F)c2)cc1OC [Example 1-51, 6-((2-chloro-3′,5-dimethoxy-5′-(trifluoromethoxy)-4-biphenylyl)(methylcarbamoyl)amino)-N-3-isoxazolyl-3-pyridinesulfonamide]
31	CNC(=O)N(c1ccc(S(=O)(=O)Nc2ccon2)cn1)c1cc(Cl)c(-c2cc(F)c(F)c(F)c2)cc1OC [Example 1-52, 6-((2-chloro-3′,4′,5′-trifluoro-5-methoxy-4-biphenylyl)(methylcarbamoyl)amino)-N-3-isoxazolyl-3-pyridinesulfonamide]
48	CNC(=O)N(c1ccc(S(=O)(=O)Nc2ccon2)cn1)c1cc(Cl)c(-c2cc(Cl)cc(C#N)c2)cc1OC [Example 1-53, 6-((2,3′-dichloro-5′-cyano-5-methoxy-4-biphenylyl)(methylcarbamoyl)amino)-N-3-isoxazolyl-3-pyridinesulfonamide]
52	CNC(=O)N(c1ccc(S(=O)(=O)Nc2ccon2)cn1)c1cc(Cl)c(-c2ccc(Cl)c(C#N)c2)cc1OC [Example 1-54, 6-((2,4′-dichloro-3′-cyano-5-methoxy-4-biphenylyl)(methylcarbamoyl)amino)-N-3-isoxazolyl-3-pyridinesulfonamide]
17	CNC(=O)N(c1ccc(S(=O)(=O)Nc2ccon2)cn1)c1cc(Cl)c(-c2cc(C(F)(F)F)ccc2F)cc1OC [Example 1-55, 6-((2-chloro-2′-fluoro-5-methoxy-5′-(trifluoromethyl)-4-biphenylyl)(methylcarbamoyl)amino)-N-3-isoxazolyl-3-pyridinesulfonamide]
19	CNC(=O)N(c1ccc(S(=O)(=O)Nc2ccon2)cn1)c1cc(Cl)c(-c2cc(OC(F)(F)F)ccc2OC)cc1OC [Example 1-56, 6-((2-chloro-2′,5-dimethoxy-5′-(trifluoromethoxy)-4-biphenylyl)(methylcarbamoyl)amino)-N-3-isoxazolyl-3-pyridinesulfonamide]
24	CNC(=O)N(c1ccc(S(=O)(=O)Nc2ccon2)cn1)c1cc(Cl)c(-c2ccc(F)c(OCC(F)(F)F)c2)cc1OC [Example 1-57, 6-((2-chloro-4′-fluoro-5-methoxy-3′-(2,2,2-trifluoroethoxy)-4-biphenylyl)(methylcarbamoyl)amino)-N-3-isoxazolyl-3-pyridinesulfonamide]
3020	CNC(=O)N(c1ccc(S(=O)(=O)Nc2ccon2)cn1)c1cc(Cl)c(C2CC2)cc1OC [Example 1-59, 6-((5-chloro-4-cyclopropyl-2-methoxyphenyl)(methylcarbamoyl)amino)-N-3-isoxazolyl-3-pyridinesulfonamide]
19	CNC(=O)N(c1ccc(S(=O)(=O)Nc2ccon2)cn1)c1cc(Cl)c(-c2ccc(F)c(Cl)c2)cc1OC [Example 1-60, 6-((2,3′-dichloro-4′-fluoro-5-methoxy-4-biphenylyl)(methylcarbamoyl)amino)-N-3-isoxazolyl-3-pyridinesulfonamide]
20	CNC(=O)N(c1ccc(S(=O)(=O)Nc2ccon2)cn1)c1cc(Cl)c(-c2ccc(C)c(Cl)c2)cc1OC [Example 1-61, 6-((2,3′-dichloro-5-methoxy-4′-methyl-4-biphenylyl)(methylcarbamoyl)amino)-N-3-isoxazolyl-3-pyridinesulfonamide]
